Experiments:
[1] = Influence factors (stability) experiments of Form I, Form II and Form B; assay type: physicochemical
Source text: 2. Influence factors experiments of Form I, Form II and Form B:
In addition, the same batch of raw materials was crystallized in acetone/ethyl alcohol to produce Form B and crystallized in acetone/water to produce Form I and Form II, then compare the appearance and color of the products.

[2] = Thermostability experiments: forms suspended in water and stirred at 60 and 100° C.; assay type: physicochemical; settings: for increased amount of related substance, N-deacetylates: stirred in water at 100° C. for 48 h; for electrostatic effect: suspended in water at 100° C., stirred 24 h, filtered and dried; for DSC / X-ray powder diffraction (change) / melting temperature (change) / X-ray powder diffraction pattern (change): suspended in water; for melting temperature (change): numbers are decreases
Procedure: Apremilast Crystalline Form II and Form B were suspended in water and stirred for 24-48 h under 60 and 100° C., respectively, then cooled, filtered, and dried, and X-ray powder diffraction patterns, DSC patterns, melting temperature and related substance were determined (see Table 4).
Apremilast Crystalline Form II and Form B were suspended in water, respectively, stirred at 60-100° C. for 48 h sampled at a certain time interval and filtered, dried to determine the change of melting temperature; sampled at 24 h, 48 h, filtered and dried to determine change of XRPD patterns, DSC patterns, melting temperature, electrostatic effects, and related substances.

[3] = Electrostatic effect under the same micronization condition; assay type: physicochemical
Source text: Large electrostatic effect will adversely affect the preparation processing.

[4] = Solubility of Form II and Form B in common solvents; assay type: physicochemical; settings: acetone, butanone, ethyl alcohol, methanol, ethyl acetate, acetonitrile, dichloromethane, tetrahydrofuran, petroleum ether, n-hexane, water
Procedure: The solubility of Form II and Form B in common solvents such as acetone, butanone, ethyl alcohol, methanol, ethyl acetate, acetonitrile, dichloromethane, tetrahydrofuran, petroleum ether, n-hexane, water was tested and compared.

[5] = In vivo pharmacokinetic comparison study in SD rats (gavage, LC-MS/MS plasma concentration); settings: for AUC(0-t) / Cmax / Tmax: SD (Sprague-Dawley), rat, plasma, po, gavage 10 mg/kg suspension; for AUC(0-t): read-out: area under the curve AUC0-t; for Cmax: read-out: peak concentrations Cmax; for Tmax: 10 mg/kg
Procedure: Twelve SD rats weight 200-220 g with half males and half females were divided randomly into 2 groups (named as group A and group B).
According to the administration route and dosage amounts provided in FDA references, the two crystalline forms were given by gavage to investigate their pharmacokinetic behaviors in rats. The dosage amounts of the two forms are both 10 mg/kg (solvent is 1% carboxymethylcellulose). The rats were fasted for 12 hs before the study, food was provided 4 hs after administration, water deprivation was not required during the whole study. • Blood was collected via the fundus venous plexus 10, 30mins, 1, 2, 4, 6, 8, 10, 12 and 24 hs after administration. The collected blood was placed on ice and centrifuged for 5min at 8000 rpm, plasma was separated, and cryoperserved in a −20° C. refrigerator. LC-MS/MS was used to determine the concentration of APST in plasma. Linearity range of APST in plasma is 2-1000ng/ml, the linearity was good.

[6] = Comparison of pharmacokinetics in Beagle dogs (oral capsule of crude drug powder, LC-MS/MS plasma concentration); assay type: in vivo; settings: both sexes, dog, 30 mg crude drug powder capsule, single period
Procedure: 6 healthy Beagle dogs weight 6-8 kg with half males and half females were divided randomly into 2 groups, each group having 3.
According to the administration route and dosage amounts, medicine is administrated orally and the dosage is 30 mg/dog/time. After crude drug powder of two crystal forms being weighed about 30 mg respectively, capsule shell is used to be filled and 10 ml water is used accompanied with administration. The Beagle dogs were fasted for 12 hours before the study, and food is provided in 4 hours after administration. Water deprivation was not required during the whole study. Specific administration groups are designed in the table as below.
0.5ml venous blood was collected via the small saphenous veins 10, 30 min, 1, 2, 4, 6, 8, 10, 12, 24, 48 and 72 h before (0 hour) or after administration. After centrifugation for 5 minutes at 8000 rpm, blood plasma is separated out and placed in anti freezing plastic test tube for storing in refrigerator at −20 C temporarily.
Concentration of APST in blood plasma is tested by LC-MS/MS method. The linearity range of APST testing is 5 to 5000 ng/ml, and the linear is good.

[7] = Crystalline form conversion study, suspension in acetone/water at reflux; assay type: physicochemical; settings: suspended in acetone/water (1:3), refluxing temperature; Form B 36 h, Form D 8-10 h
Procedure: In addition, pure Form II can obtained by suspending crashed Forms A, B, C, D, E, F and/or G in acetone/water and stirring at 50° C. to refluxing temperature for 1-48 h.
Apremilast Crystalline Form B (5.0 g, particle size less than 300 mesh) was suspended in 60 ml acetone/water (1:3), heated to refluxing temperature and stirred for 36 h, then cooled while stirring, filtered, dried at 60° C. to obtain about 4.88 g of Apremilast Crystalline Form II, mp:148.3-150.3° C.
Apremilast Crystalline Form D (5.0 g, particle size less than 200mesh) was suspended in 60m1 acetone/water (1:3), heated to refluxing temperature and stirred for 8-10 h, then cooled while stirring, filtered, dried at 60° C. to obtain about 4.60 g of Apremilast Crystalline Form II, mp:148.3-150.5° C.

[8] = both sexes, SD rats, males and females together, read-out: time to peak Tmax
[9] = both sexes, SD rats, males and females together, read-out: time to peak Tmax (median)
[10] = both sexes, SD rats, males and females together
[11] = female, female rats, read-out: time to peak Tmax
[12] = female, female rats, read-out: time to peak Tmax (median)
[13] = male, male rats, read-out: time to peak Tmax
[14] = male, male rats, read-out: time to peak Tmax (median)

| SMILES | stability under high temperature and high humidity conditions [1] | Change of related substance/high temperature for 10 days [1] | moisture absorption/humidity 92.5% Change of related substances [1] | moisture absorption/humidity 92.5% weight gain [1] [%] | Change of related substances/light exposure for 10 days [1] | increased amount of related substance, N-deacetylates [2] [%] | electrostatic effect [2] | DSC ([2]; 60° C., 48 h) [°C] | X-ray powder diffraction (change) ([2]; 60° C., 48 h) | melting temperature (change) ([2]; 60° C., 48 h) | X-ray powder diffraction pattern (change) ([2]; 100° C., 24~48 h) | melting temperature (change) ([2]; 100° C., 24~48 h) | electrostatic effect [3] | solubility, Form II compared with Form B [4] | AUC(0-t) ([5]; female rats) [ng·h/mL] | Cmax ([5]; female rats) [ng/mL] | AUC(0-t) ([5]; male rats) [ng·h/mL] | Cmax ([5]; male rats) [ng/mL] | Tmax [5, 8] [h] | Tmax [5, 9] [h] | also measured |
| --- | --- | --- | --- | --- | --- | --- | --- | --- | --- | --- | --- | --- | --- | --- | --- | --- | --- | --- | --- | --- | --- |
| CCOc1cc(C(CS(C)(=O)=O)N2C(=O)c3cccc(NC(C)=O)c3C2=O)ccc1OC (single isomer, unassigned; (+)) [Form II, (+)-2-[1-(3-ethoxy-4-methoxyphenyl)-2-methylsulfonylethyl]-4-acetylaminoisoindoline-1,3-dione] | stable | Essentially no | essentially no | <1.0 | essentially no | 0.046 | essentially no electrostatic effect | 150 | essentially no | essentially no | essentially no | essentially no | weak or no electrostatic effect | essentially no difference | 10600 ± 1050 | 906 ± 179 | 446 ± 81.2 | 108 ± 16.1 | 1 to 6 | 3 | DSC ([2]; 100° C., 24~48 h): 150 °C; AUC(0-t) [5, 10]: 5530 ± 5610 ng·h/mL; Cmax [5, 10]: 507 ± 452 ng/mL; exposure of Form II relative to the exposure of Form B ([5]; female SD rats): 1.5 times; Tmax [5, 11]: 4 to 6 h; Tmax [5, 12]: 6 h; Tmax [5, 13]: 1 to 2 h; Tmax [5, 14]: 1 h; AUC(0-inf) [6]: 38200 ± 13000 ng·h/mL; AUC(0-t) [6]: 37700 ± 22400 ng·h/mL; Cmax [6]: 2050 ± 357 ng/mL; Tmax [6]: 9 ± 13 h |
| CCOc1cc([C@@H](CS(C)(=O)=O)N2C(=O)c3cccc(NC(C)=O)c3C2=O)ccc1OC [Form B, (+)-2-[1-(3-ethoxy-4-methoxyphenyl)-2-methylsulfonylethyl]-4-acetylaminoisoindoline-1,3-dione] | stable | – | – | <1.0 | – | 0.059 | serious electrostatic effect | 157 | weak | Decreased 2-3 °C | Weak absorption | Decreased 3-4 °C | higher electrostatic effect | essentially no difference | 7000 ± 1140 | 904 ± 28.5 | 530 ± 70 | 142 ± 14 | 1.6 | 2.5 | conversion of crystalline form (XRPD pattern and DSC pattern) [7]: complete conversion to Form II; exposure of APST-B as percentage of the exposure of APST-II ([5]; SD rats, males and females together, gavage 10 mg/kg): about 68.07%; AUC(0-t) [5, 10]: 3770 ± 3620 ng·h/mL; Cmax [5, 10]: 523 ± 417 ng/mL; AUC0-t of APST-B as percentage of that of APST-II ([5]; female rats, gavage 10 mg/kg): 65.9%; Tmax [5, 11]: 2 to 6 h; Tmax [5, 12]: 4 h; AUC0-t of APST-B as percentage of that of APST-II ([5]; male rats, gavage 10 mg/kg): ~119.0%; Cmax of APST-B as percentage of that of APST-II ([5]; male rats, gavage 10 mg/kg): about 132.3%; Tmax [5, 13]: 1 h; Tmax [5, 14]: 1 h; AUC(0-inf) [6]: 38500 ± 20500 ng·h/mL; AUC(0-t) [6]: 38000 ± 20500 ng·h/mL; Cmax [6]: 2410 ± 377 ng/mL; Tmax [6]: 1.7 ± 0.6 h |
| CCOc1cc([C@@H](CS(C)(=O)=O)N2C(=O)c3cccc(NC(C)=O)c3C2=O)ccc1OC [Form I, (+)-2-[1-(3-ethoxy-4-methoxyphenyl)-2-methylsulfonylethyl]-4-acetylaminoisoindoline-1,3-dione] | stable | Essentially no | essentially no | – | essentially no | – | – | – | – | – | – | – | – | – | – | – | – | – | – | – | – |

Source: patent US9850205B2, “Stable apremilast crystalline form II free of solvate and method of making the same” (UTOPHARM (SHANGHAI) CO., LTD, priority 2015, dated 2017)
